Entries after “also recorded” stand apart in the source; their conditions may differ. Where two headings read alike, the source gives them in different places.
Legend:
[1] = system: male CD-1 mice, electrically stimulated ejaculation; test: electroejaculation test in conscious male mice (bipolar rectal probe); format: in vivo, mouse; conditions: for Effective Dose / Ejaculation Inhibition % / Max. ejaculation Inhibition / Optimal Dose: male mice; for Effective Dose / Ejaculation Inhibition %: oral; for Ejaculation Inhibition %: at the effective dose; for Max. ejaculation Inhibition / Optimal Dose: subcutaneous injection; for Max. ejaculation Inhibition: at the optimal dose; for Optimal Dose: dose giving max. ejaculation inhibition
Description: To investigate the efficacy of delta opioid receptor agonists as a treatment for premature ejaculation, intact conscious male mice were electrically stimulated subsequent to the administration of a delta opioid receptor agonist to determine if a delay in ejaculation was observed when compared to administration of a placebo
Male, CD-1 mice (20-30 g) were housed in groups of ten (10) in Plexiglas® chambers with food and water available before any procedure. Animals were maintained on a 12 hour light/dark cycle in a temperature-controlled animal colony. Studies were carried out in accordance with the Guide for the Care and Use of Laboratory animals as adopted and promulgated by the National Institutes of Health.
Specifically, the bipolar electrode probe is an approximately 5 cm long tube having an outer diameter of approximately 0.25 cm with an inner diameter of approximately 0.08. In the center lumen of the elongated tubular body 12 are embedded cathode 16 and anode 18, which are formed of a conductive material, preferably platinum. The cathode 16 and anode 18 are connected at one end to external power supplying means (not shown). Anode 18 extends at the other end all the way to one extremity of the elongated body 12 and forming an anode terminal 22 at such extremity. Cathode 16 only extends to a middle portion of the elongated body 12 and forming a cathode terminal 20 at such middle portion. The cathode terminal 20 is preferably positioned away from the anode terminal 22, at a distance of about 0.5 cm.
The testing delta opioid receptor agonist (SNC-80) was purchased from Tocris Cookson, Inc., Ellisville, Mo., USA, and dissolved in 5% dextrose injection solution. An equimolar amount of aqueous hydrochloric acid was added when the manufacturer packaged the compound in its base form. The placebo was 5% dextrose alone. Each mouse was injected subcutaneously with […] of the SNC-80 compound or with 10 mg/kg of a placebo. 10 minutes after the injection, the test mouse was subjected to electrostimulation. Ten mice were tested for each dose level, the order of each mouse receiving different doses was blinded and in a random manner.
During the testing the mouse was restrained in a cone bag with rear legs extending from the bag. Excess fecal matter was removed from the rectum and the above-discussed lubricated bipolar electrode was inserted approximately 2.5 cm into the rectum. […] The stimulation regime included 4 stimulating events for each voltage lasting 2 seconds with a rest period of 2 seconds between stimulating events until ejaculation occurred or the terminal voltage of 8 volts was reached. A white coagulum ejaculate from the penis indicates a successful ejaculation.
For the electroejaculation test, dose-response lines were constructed as an accumulated ejaculation at a specified voltage. A minimum of 10 mice was used at each dose level. Each dose response was the average of two to three independent experiments. Students' t-test was used to assess unpaired comparison, with […] indicating significance.
Testing was conducted on mice injected with SNC-80 or a buffer vehicle for the control group. […] Each mouse was subjected to electroejaculation at 40 Hz (starting at 3 volts with a gradual increase to 8 volts by increments of 0.5 volts) approximately 10 minutes after subcutaneous administration of SNC-80 at different doses of 0, 0.1, 0.3 and 1 mg/kg. A minimum of 10 mice were used at each dose level. Each does response was the average of two to three independent experiments±SEM.
To determine if SNC-80 inhibits the ejaculation via specific binding to delta opioid receptor, the effect of SNC-80 on ejaculation was tested against the delta opioid selective antagonist naltrindole (NTI). Subcutaneous injections of a control vehicle (CTL), 0.5 mg/kg SNC-80, 0.5 mg/kg SNC-80 plus 0.1 mg/kg of NTI and 0.1 mg/kg of NTI were administered to the mice. A minimum of 10 mice was utilized for each dose level. […]

[2] = system: mouse vas deferens; conditions: background statement; cited from earlier work
[3] = system: mouse vas deferens; test: in vitro inhibition of electrically stimulated contraction of mouse vas deferens in tissue bath
[4] = target: μ opioid receptor (Homo sapiens, UniProt P35372); test: radio-ligand competition binding assay, μ
[5] = target: κ opioid receptor (Homo sapiens, UniProt P41145); test: radio-ligand competition binding assay, κ
[6] = target: delta opioid receptor (Homo sapiens, UniProt P41143); test: radio-ligand competition binding assay, δ
[7] = radio-ligand competition binding per U.S. Pat. Nos. 5,985,880 and 5,807,858, read-out: κ binding affinity
[8] = radio-ligand competition binding per U.S. Pat. Nos. 5,985,880 and 5,807,858, read-out: δ binding affinity

Row | Molecule | Effective Dose [1] | Ejaculation Inhibition % [1] | EC50 [3] | Max. ejaculation Inhibition [1] | Optimal Dose [1] | further results
1 | Oc1ccc2c3c1O[C@H]1c4[nH]c5ccccc5c4C[C@@]4(O)[C@@H](C2)N(CC2CC2)CC[C@]314 [NTI, naltrindole, reference compound] |  |  |  |  |  | ejaculation response, antagonist alone ([1]; 0.1 mg/kg subcutaneous, 35 Hz, FIG. 4): did not affect the ejaculation response
2 | CCN(CC)C(=O)c1ccc([C@H](c2cccc(OC)c2)N2C[C@@H](C)N(Cc3ccc(F)cc3)C[C@@H]2C)cc1 [Example 29, 4-((alpha-R)-alpha-((2S,5R)-2,5-Dimethyl-4-(4-fluorobenzyl)-1-piperazinyl)-3-methoxybenzyl)-N,N-diethylbenzamide] | 3 mg/kg | 38% |  |  |  | 
3 | C=CCN1C[C@H](C)N([C@H](c2ccc(C(=O)N(CC)CC)cc2)c2cccc(OC)c2)C[C@H]1C [SNC-80, reference compound] |  |  |  |  |  | contraction of mouse vas deferens smooth muscle in vitro [2]: block the contraction of mouse vas deferens smooth muscle in vitro; inhibitory effect on ejaculation at reduced dose ([1]; 0.1 mg/kg subcutaneous, 40 Hz, FIG. 3): inhibitory effect diminished; inhibitory effect on ejaculation with co-injected antagonist ([1]; 0.5 mg/kg SNC-80 plus 0.1 mg/kg NTI subcutaneous, 35 Hz, FIG. 4): abolished; also recorded: inhibitory effect was blocked; reduction of ejaculation (factor) ([1]; 0.5 mg/kg subcutaneous, 35 Hz, 10 minutes after injection, FIG. 4): at least 2; occurrence of ejaculation versus control group ([1]; 1 mg/kg subcutaneous, 40 Hz, 10 minutes after injection, FIG. 3): significantly reduced the occurrence of ejaculation
4 | CCN(CC)C(=O)c1ccc([C@H](c2cccc(O)c2)N2C[C@@H](C)N(Cc3ccc(C(=O)O)cc3)C[C@@H]2C)cc1 [Example 13, 4-{(2R,5S)-4-[(R)-(4-Diethylcarbamoylphenyl)(3-hydroxyphenyl)methyl]-2,5-dimethylpiperazin-1-ylmethyl)benzoic acid] |  |  | 21.2 nM | 50% | 5 mg/kg | Ki [4]: 3470 nM; Ki [5]: > 100 nM; Ki [6]: 5.69 nM
5 | CCN(CC)C(=O)c1ccc([C@H](c2cccc(O)c2)N2C[C@@H](C)N(Cc3cccc(F)c3)C[C@@H]2C)cc1 [Example 36, 4-((alpha-R)-alpha-((2S,5R)-2,5-Dimethyl-4-(3-fluorobenzyl)-1-piperazinyl)-3-hydroxybenzyl)-N,N-diethylbenzamide] | 3 mg/kg | 60% |  |  |  | 
6 | C=CCN1C[C@@H](C)N([C@H](c2ccc(S(=O)(=O)N(C)C)cc2)c2cccc(O)c2)C[C@@H]1C [Example 40, 4-[(R)-((2R,5S)-4-Allyl-2,5-dimethylpiperazin-1-yl)(3-hydroxyphenyl)methyl]-N,N-dimethylbenzenesulfonamide] | 0.3 mg/kg | 50% |  |  |  | 
7 | CCN(CC)C(=O)c1ccc([C@H](c2ccccc2)N2C[C@@H](C)N(Cc3ccc(O)cc3)C[C@@H]2C)cc1 [Example 37, 4-((alpha-S)-alpha-((2S,5R)-2,5-Dimethyl-4-(4-hydroxybenzyl)-1-piperazinyl)-benzyl)-N,N-diethylbenzamide] | 3 mg/kg | 50% |  |  |  | 
8 | CCN(CC)C(=O)c1ccc([C@H](c2cccc(OC)c2)N2C[C@@H](C)N(Cc3ccccc3F)C[C@@H]2C)cc1 [Example 39, 4-((alpha-R)-alpha-((2S,5R)-2,5-Dimethyl-4-(2-fluorobenzyl)-1-piperazinyl)-3-methoxybenzyl)-N,N-diethylbenzamide] | 10 mg/kg | 50% |  |  |  | 
9 | CCN(CC)C(=O)c1ccc([C@H](c2cccc(OCC(=O)O)c2)N2C[C@@H](C)N(Cc3ccccc3)C[C@@H]2C)cc1 [Example 15, 3-((alpha-R)-alpha-((2S,5R)-4-Benzyl-2,5-dimethyl-1-piperazinyl)-4-(diethylaminocarbonyl)benzyl)phenoxyacetic acid] | 3 mg/kg | 66% |  |  |  | 
10 | CCN(CC)C(=O)c1cccc([C@H](c2cccc(O)c2)N2C[C@@H](C)N(Cc3cccc(O)c3)C[C@@H]2C)c1 [Example 17, N,N-Diethyl-3-((R)-((2S,5R)-2,5-dimethyl-4-(3-hydroxybenzyl)piperazin-1-yl)(3-hydroxyphenyl)methyl)benzamide] |  |  | 2.9 nM | 50% | 1 mg/kg | Ki [4]: 1.28 nM; Ki [5, 7]: 20.9 nM; Ki [6, 8]: 0.66 nM
11 | CCN(CC)C(=O)c1ccc([C@H](c2cccc(OC)c2)N2C[C@@H](C)N(Cc3ccccc3)C[C@@H]2C)cc1 [Example 38] | 3 mg/kg | 33% |  |  |  | 
12 | CCN(CC)C(=O)c1ccc([C@H](c2cccc(O)c2)N2C[C@@H](C)N(Cc3ccccc3)C[C@@H]2C)cc1 [Example 12, 4-((alpha-R)-alpha-((2S,5R)-4-Benzyl-2,5-dimethyl-1-piperazinyl)-3-hydroxybenzyl)-N,N-diethylbenzamide] |  |  | 4.4 nM | 28% | 5 mg/kg | Ki [4]: 1.45 nM; Ki [5, 7]: 68.7 nM; Ki [6, 8]: 0.123 nM
13 | C=CCN1C[C@H](C)N([C@H](c2ccc(C(=O)N(CC)CC)cc2)c2cccc(OCC(=O)O)c2)C[C@H]1C [Example 14, 3-((alpha-R)-alpha-((2S,5R)-4-Allyl-2,5-dimethyl-1-piperazinyl)-4-(diethylamino-carbonyl)benzyl)phenoxyacetic acid] | 0.01 mg/kg | 45% | 7.2 nM | 35% | 10 mg/kg | Ki ([4]; radio-ligand competition binding per U.S. Pat. Nos. 5,985,880 and 5,807,858, read-out: μ binding affinity): 162 nM; Ki [5]: > 100 nM; Ki [6]: 11.1 nM
14 | 4-(alpha-R)-alpha-((2S,5R)-4-(Cyclopropylmethyl)-2,5-dimethyl-1-piperazinyl)-3-hydroxybenzyl)-N,N-diethylbenzamide [Example 35] | 0.3 mg/kg | 60% |  |  |  | 
15 | CCN(CC)C(=O)c1ccc([C@H](c2cccc(O)c2)N2C[C@@H](C)N(Cc3ccc(F)cc3)C[C@@H]2C)cc1 [Example 11, 4-((alpha-R)-alpha-((2S,5R)-2,5-Dimethyl-4-(4-fluorobenzyl)-1-piperazinyl)-3-hydroxybenzyl)-N,N-diethylbenzamide] |  |  | 2.8 nM | 30% | 5 mg/kg | Ki [4]: 27.1 nM; Ki [5, 7]: > 100 nM; Ki [6, 8]: 1.23 nM
16 | CCN(CC)C(=O)c1ccc([C@H](c2ccccc2)N2C[C@H](C)N(Cc3cccc(F)c3)C[C@H]2C)cc1 [Example 41, 4-((alpha-S)-alpha-((2R,5S)-2,5-Dimethyl-4-(3-fluorobenzyl)-1-piperazinyl)benzyl)-N,N-diethylbenzamide] | 0.4 mg/kg | 75% |  |  |  | 

Reference: patent US8865721B2, “Delta opioid receptor agonist compounds” (priority 2001, dated 2014)
